The values that follow come from patent US7244462B2, “Amino acid derivative and sweetening agent” (Ajinomoto Co., Inc., priority 2003, dated 2007).

Where “and” joins values, the source holds several entries; their conditions need not be identical. Equal entries are not always repeated. Where two headings read alike, the source gives them in different places. Peptide text beside a SMILES is read from it.

Data set [1] is described as follows: Sensory test: degree of sweetness compared with sucrose (sugar) solution. To be noted: for Degree of sweetness (multiplying power of sweetness): compared with a 4 to 5% sucrose solution. From the text:
The derivative of the invention, i.e., the compound and the form of the salt thereof of the invention was proven to have strong sweetness with a quality of sweetness that is similar to sugar, as a result of a sensory test. For example, the degree of sweetness of 2-amino-4,5-dihydroxy-4-(3-indolylmethyl)pentanoic acid (mixture of the (2S,4S) isomer and (2R,4R) isomer at a ratio of 1:1) was about 1250 times as high as that of sugar, and the degree of sweetness of (2R,4R)-2-amino-4-hydroxy-4-ethylcarbamoyl-4-(3-indolylmethyl)butyric acid was about 1600 times as high as that of sugar. […] Structure and results of the sensory test on several synthesized amino acid derivatives (represented by the following formula (1)) are presented in Table 1.

Data set [2] in a line: Stability (half life) in aqueous acidic solution, citrate buffer pH 3, 70° C. It is filed as physicochemical. To be noted: citrate buffer solution of pH=3, at 70° C.
The conditions of data set [3]: (2S,4S) isomer derived from natural plant; literature report; cited from earlier work.
Setting [4] is: compared with a 5% sugar solution.

`CCNC(=O)[C@@](O)(Cc1c[nH]c2ccccc12)C[C@@H](N)C(=O)O` [Compound No. 8, (2R,4R)-2-amino-4-hydroxy-4-ethylcarbamoyl-4-(3-indolylmethyl)butyric acid]: the “Degree of sweetness (multiplying power of sweetness)” value in data set [1] is “about 1600”. Besides, the Degree of sweetness entry in data set [1] (setting [4]) is “About 1600 times”; in data set [1] (sensory test) it was “about 1600 times as high as that of sugar”. Further, the half-life (usually how long it takes for the measured level to halve) in data set [2] was approximately 97 h.
`CC(O)(Cc1c[nH]c2ccccc12)CC(N)C(=O)O` (stereo not drawn) [Compound No. 5, 2-amino-4-hydroxy-4-(3-indolylmethyl)pentanoic acid]: the “Degree of sweetness (multiplying power of sweetness)” value in data set [1] is reported as “about 900”. In addition, the Degree of sweetness entry in data set [1] (setting [4]) is recorded as “About 900 times”.
Molecule `COC(=O)[C@H](Cc1ccccc1)NC(=O)[C@@H](N)CC(=O)O` [aspartame, reference compound] (H-Asp-Phe-OMe) showed a half-life in data set [2] of approximately 35 h.
Take `CNC(=O)[C@@](O)(Cc1c[nH]c2ccccc12)C[C@@H](N)C(=O)O` [Compound No. 7, (2R,4R)-2-amino-4-hydroxy-4-methylcarbamoyl-4-(3-indolylmethyl)butyric acid]: the “Degree of sweetness (multiplying power of sweetness)” value in data set [1] is reported as “about 200”. The Degree of sweetness result in data set [1] (setting [4]) was “About 200 times”.
As for `NC(CC(O)(CO)Cc1c[nH]c2ccccc12)C(=O)O` (mixture of isomers) [Compound No. 3, (2S,4S)- and (2R,4R)-2-amino-4,5-dihydroxy-4-(3-indolylmethyl)pentanoic acid mixture], the “Degree of sweetness (multiplying power of sweetness)” value in data set [1] is recorded as “about 1250”. Besides, the figures for the Degree of sweetness entry in data set [1] (setting [4]) and in data set [1] (sensory test) were “About 1250 times” and “about 1250 times as high as that of sugar”, respectively.
Regarding `NC(CC(O)(CO)Cc1c[nH]c2ccccc12)C(=O)O` (mixture of isomers) [Compound No. 4, (2S,4R)- and (2R,4S)-2-amino-4,5-dihydroxy-4-(3-indolylmethyl)pentanoic acid mixture], the “Degree of sweetness (multiplying power of sweetness)” value in data set [1] is “about 750”. The Degree of sweetness result in data set [1] (setting [4]) is recorded as “About 750 times”.
On to `Cc1ccc2c(CC(O)(C[C@H](N)C(=O)O)C(=O)O)c[nH]c2c1` (stereo partly drawn) [Compound No. 2, 4-hydroxy-4-(6-methylindole-3-ylmethyl)glutamic acid], for which the “Degree of sweetness (multiplying power of sweetness)” value in data set [1] is on record as “about 650”. Further, the Degree of sweetness result in data set [1] (setting [4]) is listed as “About 650 times”.
As for `N[C@@H](C[C@@](O)(Cc1c[nH]c2ccccc12)C(=O)O)C(=O)O` [monatin, (2S,4S)-2-amino-4-carboxy-4-hydroxy-5-(3-indolyl)pentanoic acid], the Degree of sweetness in data set [3] is 800 times of sucrose and 1400 times of sucrose.
Consider `N[C@H](C[C@H](Cc1c[nH]c2ccccc12)C(=O)O)C(=O)O` [Compound No. 1, (2R,4S)-2-amino-4-(3-indolyl)methyl pentandioic acid], for which, in data set [1], the “Degree of sweetness (multiplying power of sweetness)” value is “about 200”. Also, the Degree of sweetness entry in data set [1] (setting [4]) is listed as “About 200 times”.
As to `CCC(O)(Cc1c[nH]c2ccccc12)CC(N)C(=O)O` (stereo not drawn) [Compound No. 6, 2-amino-4-hydroxy-4-(3-indolylmethyl)hexanoic acid], the “Degree of sweetness (multiplying power of sweetness)” value in data set [1] was “about 500”. Also, the Degree of sweetness entry in data set [1] (setting [4]) is “About 500 times”.
